Measurements published in ChEMBL document CHEMBL2434882, “A novel [1,2,4] triazolo [1,5-a] pyrimidine-based phenyl-linked steroid dimer: synthesis and its cytotoxic activity” (Eur J Med Chem, 2013).
pIC50: −log10 of the molar value. Activity calls are given as the source filed them. No cut-off for these calls is given here.

Legend:
ECa-109 cell line [1] = assay: Induction of apoptosis in human EC109 cells assessed as damaged cells at 2.5 uM after 24 hrs by annexin V-FITC/propidium iodide staining-based flow cytometric analysis (reference value: 0.1%); assay type: functional
[2] = Selectivity ratio of IC50 for human L02 cells to IC50 for human SMMC7721 cells; assay type: cell-based, SMMC-7721; conditions: L02 cells versus SMMC7721 cells, read-out: Ratio IC50
ECa-109 cell line [3] = assay: Induction of apoptosis in human EC109 cells assessed as live cells at 2.5 uM after 12 hrs by annexin V-FITC/propidium iodide staining-based flow cytometric analysis (reference value: 92.1%); assay type: functional
[4] = Disruption of mitochondrial membrane potential in human EC109 cells at 10 uM after 24 hrs by JC1 staining-based flow cytometric analysis (reference value: 8.1%); assay type: functional, ECa-109
[5] = Cell cycle arrest in human EC109 cells assessed as accumulation at G2/M phase at 2.5 uM after 24 hrs by propidium iodide staining-based flow cytometric analysis (reference value: 6.31%); assay type: functional; conditions: ECa-109
ECa-109 cell line [6] = assay: Induction of apoptosis in human EC109 cells assessed as damaged cells at 20 uM after 24 hrs by annexin V-FITC/propidium iodide staining-based flow cytometric analysis (reference value: 0.1%); assay type: functional
ECa-109 cell line [7] = assay: Induction of apoptosis in human EC109 cells assessed as damaged cells at 5 uM after 24 hrs by annexin V-FITC/propidium iodide staining-based flow cytometric analysis (reference value: 0.1%); assay type: functional
ECa-109 cell line [8] = assay: Induction of apoptosis in human EC109 cells assessed as damaged cells at 10 uM after 12 hrs by annexin V-FITC/propidium iodide staining-based flow cytometric analysis (reference value: 0.4%); assay type: functional
ECa-109 cell line [9] = assay: Induction of apoptosis in human EC109 cells assessed as increase in late apoptotic cells at 2.5 to 40 uM by annexin V-FITC/propidium iodide staining-based flow cytometric analysis; assay type: functional, cell-based; conditions: TDE = time-dependent effect
ECa-109 cell line [10] = assay: Induction of apoptosis in human EC109 cells assessed as late apoptotic cells at 5 uM after 12 hrs by annexin V-FITC/propidium iodide staining-based flow cytometric analysis (reference value: 1.4%); assay type: functional
MCF7 = assay: Cytotoxicity against human MCF7 cells assessed as growth inhibition after 72 hrs by MTT assay; assay type: functional, cell-based; conditions: MCF7, 72 h
[11] = Cell cycle arrest in human EC109 cells assessed as accumulation at G2/M phase at 5 uM after 24 hrs by propidium iodide staining-based flow cytometric analysis (reference value: 6.31%); assay type: functional; conditions: ECa-109
ECa-109 cell line [12] = assay: Induction of apoptosis in human EC109 cells assessed as nuclear condensation at 1.25 to 20 uM after 24 hrs by Hoechst 33258 staining-based fluorescence microscopic analysis; assay type: functional, cell-based
PC-3 = assay: Cytotoxicity against human PC3 cells assessed as growth inhibition after 72 hrs by MTT assay; assay type: functional, cell-based; conditions: PC-3, 72 h
ECa-109 cell line [13] = assay: Induction of apoptosis in human EC109 cells assessed as change in cellular morphology at 1.25 to 20 uM after 24 hrs by inverted microscopic analysis; assay type: functional, cell-based
[14] = Upregulation of p53 protein expression in human EC109 cells at 5 to 10 uM after 24 hrs by Western blot analysis; assay type: functional, cell-based; conditions: ECa-109
ECa-109 cell line [15] = assay: Induction of apoptosis in human EC109 cells assessed as late apoptotic cells at 10 uM after 12 hrs by annexin V-FITC/propidium iodide staining-based flow cytometric analysis (reference value: 1.4%); assay type: functional
ECa-109 cell line [16] = assay: Induction of apoptosis in human EC109 cells assessed as early apoptotic cells at 40 uM after 24 hrs by annexin V-FITC/propidium iodide staining-based flow cytometric analysis (reference value: 3.8%); assay type: functional
[17] = Cell cycle arrest in human EC109 cells assessed as accumulation at S phase at 5 uM after 12 hrs by propidium iodide staining-based flow cytometric analysis (reference value: 33.29%); assay type: functional; conditions: ECa-109
ECa-109 = assay: Disruption of mitochondrial membrane potential in human EC109 cells after 24 hrs by JC1 staining-based flow cytometric analysis; assay type: functional, cell-based
ECa-109 cell line [18] = assay: Induction of apoptosis in human EC109 cells assessed as live cells at 5 uM after 24 hrs by annexin V-FITC/propidium iodide staining-based flow cytometric analysis (reference value: 93.6%); assay type: functional
[19] = Cell cycle arrest in human EC109 cells assessed as accumulation at S phase at 10 uM after 12 hrs by propidium iodide staining-based flow cytometric analysis (reference value: 33.29%); assay type: functional; conditions: ECa-109
[20] = Upregulation of Bax protein expression in human EC109 cells at 5 to 10 uM after 24 hrs by Western blot analysis; assay type: functional, cell-based; conditions: ECa-109
ECa-109 cell line [21] = assay: Induction of apoptosis in human EC109 cells assessed as damaged cells at 5 uM after 12 hrs by annexin V-FITC/propidium iodide staining-based flow cytometric analysis (reference value: 0.4%); assay type: functional
ECa-109 cell line [22] = assay: Induction of apoptosis in human EC109 cells assessed as damaged cells at 40 uM after 24 hrs by annexin V-FITC/propidium iodide staining-based flow cytometric analysis (reference value: 0.1%); assay type: functional
ECa-109 cell line [23] = assay: Induction of apoptosis in human EC109 cells assessed as live cells at 20 uM after 12 hrs by annexin V-FITC/propidium iodide staining-based flow cytometric analysis (reference value: 92.1%); assay type: functional
ECa-109 cell line [24] = assay: Induction of apoptosis in human EC109 cells assessed as increase in early apoptotic cells at 2.5 to 40 uM by annexin V-FITC/propidium iodide staining-based flow cytometric analysis; assay type: functional, cell-based; conditions: TDE = time-dependent effect
ECa-109 cell line [25] = assay: Induction of apoptosis in human EC109 cells assessed as induction of cytochrome c release from mitochondria at 5 to 10 uM after 24 hrs by Western blot analysis; assay type: functional, cell-based
ECa-109 cell line [26] = assay: Induction of apoptosis in human EC109 cells assessed as late apoptotic cells at 20 uM after 12 hrs by annexin V-FITC/propidium iodide staining-based flow cytometric analysis (reference value: 1.4%); assay type: functional
ECa-109 cell line [27] = assay: Induction of apoptosis in human EC109 cells assessed as damaged cells at 40 uM after 12 hrs by annexin V-FITC/propidium iodide staining-based flow cytometric analysis (reference value: 0.4%); assay type: functional
[28] = Cytotoxicity against human EC109 cells assessed as growth inhibition after 72 hrs by MTT assay; assay type: functional, cell-based; conditions: ECa-109, 72 h
ECa-109 cell line [29] = assay: Induction of apoptosis in human EC109 cells assessed as live cells at 5 uM after 12 hrs by annexin V-FITC/propidium iodide staining-based flow cytometric analysis (reference value: 92.1%); assay type: functional
ECa-109 cell line [30] = assay: Induction of apoptosis in human EC109 cells assessed as early apoptotic cells at 20 uM after 12 hrs by annexin V-FITC/propidium iodide staining-based flow cytometric analysis (reference value: 6.1%); assay type: functional
[31] = Disruption of mitochondrial membrane potential in human EC109 cells at 5 uM after 24 hrs by JC1 staining-based flow cytometric analysis (reference value: 8.1%); assay type: functional, ECa-109
[32] = Cell cycle arrest in human EC109 cells assessed as accumulation at G0/G1 phase at 10 uM after 24 hrs by propidium iodide staining-based flow cytometric analysis (reference value: 51.57%); assay type: functional; conditions: ECa-109
ECa-109 cell line [33] = assay: Induction of apoptosis in human EC109 cells assessed as damaged cells at 10 uM after 24 hrs by annexin V-FITC/propidium iodide staining-based flow cytometric analysis (reference value: 0.1%); assay type: functional

C[C@]12CC[C@H](O)CC1=CC[C@@H]1[C@@H]2CC[C@]2(C)c3nc4ncnn4c(-c4cccc(-c5c6c(nc7ncnn57)[C@@]5(C)CC[C@H]7[C@@H](CC=C8C[C@@H](O)CC[C@@]87C)[C@@H]5C6)c4)c3C[C@@H]12
Activity (ECa-109 cell line [1]): 0.2%
selectivity ratio [2]: 49
Activity (ECa-109 cell line [3]): 58.3%
Activity [4]: 76.7%
Activity [5]: 14.8%
Activity (ECa-109 cell line [6]): 2.4%
Activity (ECa-109 cell line [7]): 0.4%
Activity (ECa-109 cell line [8]): 2.7%
Activity (ECa-109 cell line [9]): tde
Activity (ECa-109 cell line [10]): 14%
pIC50 (MCF7): 5.92
Activity [11]: 19.4%
Activity (ECa-109 cell line [12]): Active
pIC50 (PC-3): 5.50
Activity (ECa-109 cell line [13]): Active
Activity [14]: Active
Activity (ECa-109 cell line [15]): 23.4%
Activity (ECa-109 cell line [16]): 12%
Activity [17]: 29.5%
Activity (ECa-109): Dose-dependent effect
Activity (ECa-109 cell line [18]): 48.2%
Activity [19]: 21.6%
Activity [20]: Active
Activity (ECa-109 cell line [21]): 2%
Activity (ECa-109 cell line [22]): 1.3%
Activity (ECa-109 cell line [23]): 12.8%
Activity (ECa-109 cell line [24]): tde
Activity (ECa-109 cell line [25]): Active
Activity (ECa-109 cell line [26]): 51.1%
Activity (ECa-109 cell line [27]): 7.9%
pIC50 [28]: 5.63
Activity (ECa-109 cell line [29]): 59.9%
Activity (ECa-109 cell line [30]): 34%
Activity [31]: 40%
Activity [32]: 45%
Activity (ECa-109 cell line [33]): 2.9%
